Results: PMC3515450, “Mechanistic and Structural Understanding of Uncompetitive Inhibitors of Caspase-6” (PLoS ONE, 2012)
pKd: −log10 of the molar value.

Key:
caspase-6 = target: T1, caspase-6 (Homo sapiens, UniProt P55212); test: Steady-state Michaelis-Menten kinetic analysis of caspase-6; format: biochemical
T1 construct: Residues 24-179 and 194-293 from caspase-6 cDNA (Origene) were cloned into pET-24b and pET-23b vectors; 6x histidine tag (C); made in house; host or cells: E. coli BL21 (DE3) pLysS
T1 sequence (P55212 24-179): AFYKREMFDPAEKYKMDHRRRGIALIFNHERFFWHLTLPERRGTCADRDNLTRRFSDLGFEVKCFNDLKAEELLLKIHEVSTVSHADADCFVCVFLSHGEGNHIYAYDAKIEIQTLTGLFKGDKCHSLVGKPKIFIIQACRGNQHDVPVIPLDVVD
T1 sequence (P55212 194-293): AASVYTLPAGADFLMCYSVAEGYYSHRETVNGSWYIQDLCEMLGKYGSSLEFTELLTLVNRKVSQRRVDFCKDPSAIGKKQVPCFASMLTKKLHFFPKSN
Experimental: The in vitro enzymatic caspase assays utilize synthetic tetrapeptide substrates labeled with the fluorophores Rhodamine110 (R110) or 7-amino-4-methylcoumarin (AMC) at the P1 aspartic acid (Asp) residue. All assays were performed in 384-well plates in 12 µL reaction volume consisting of enzyme, substrate and indicated concentration of inhibitor or DMSO in assay buffer (50 mM HEPES [pH 7.0], 25 mM MgSO4, 0.5 mM EGTA, 5 mM Glutathione (GSH), 0.01% Triton X-100 containing 0.1% Bovine Gamma Globulin (BGG)). All inhibitors were serially diluted in 100% DMSO prior to dilution in assay buffer and transfer to assay plate. DMSO was diluted into assay buffer similarly for blank wells (no enzyme or compound) and final DMSO concentration was 1%. The concentration of caspase-6 used in enzymatic reactions typically varied between 1–10 nM depending on substrate used. Unless otherwise indicated, substrate concentration was within 3-fold of the determined Kmapparent (5 µM (Ac-VEID)2R110 [Kmapp = 8 µM]; 5 µM (Ac-DEVD)2R110 [Kmapp = 8 µM]; 25 µM (Ac-IETD)2R110 [Kmapp = 70 µM]; 25 µM (Ac-WEHD)2R110 [Kmapp = 70 µM]; 10µM Ac-VEID-AMC [Kmapp = 16µM]; 5 µM Ac-VEID-R110 [Kmapp = 8 µM]). The concentration of substrate utilized in selectivity assays for each caspase isoform was also held as close to Kmapparent as reasonably achievable (Table S1). Caspases-3 and -7 were expressed and purified at Genentech as the catalytic domain consisting of large p20 and small p10 subunits without prodomain. For all caspase enzymatic assays, the reaction plate was incubated at room temperature for 40 minutes and then read on Envision (Perkin Elmer) fluorescent plate reader at excitation/emission wavelengths of 485/535 nm (R110) or 350/450 nm (AMC).
The endpoint fluorescent emission (RFU) in each well was plotted as a function of inhibitor concentration and the 50% inhibition (IC50) values were determined using a nonlinear least squares fit of the data to a four parameter equation using Prism 5.0 software (GraphPad Software, San Diego, CA). […] Ki values for Compound 3 were calculated using this equation: Ki = IC50/(Km/[S] +1). Concentration-response curves for each inhibitor were normalized to zero and 100% based on no enzyme or DMSO control, respectively. For steady-state kinetic analysis, initial reaction velocity (RFU/minute) was plotted against substrate concentration at each inhibitor concentration and the data was fit to a hyperbolic Michaelis-Menten model using Prism 5.0 software. Km (µM) and Vmax (RFU/minute) were calculated by using this equation: v = Vmax • [S]/Km+[S] where v = initial reaction velocity at indicated substrate concentration (S). Vmax values were normalized to zero and 100% based on no enzyme or DMSO control, respectively.

[1] = target: T2, covalent VEID/caspase-6 complex (Homo sapiens, UniProt P55212); test: SPR binding to VEID-FMK-blocked caspase-6; details: covalent VEID/caspase-6 (acyl enzyme) complex, 1:1 binding
T2 construct: Residues 24-179 and 194-293 from caspase-6 cDNA (Origene) were cloned into pET-24b and pET-23b vectors; 6x histidine tag; made in house; host or cells: E. coli (as above), BirA co-expressed
T2 sequence (P55212 24-179): T1 sequence (P55212 24-179)
T2 sequence (P55212 194-293): T1 sequence (P55212 194-293)
Experimental: For SPR experiments, caspase-6 was cloned to include a C-terminal avi-tag (Avidity) and expressed and purified as above, except that biotin ligase (BirA) was co-expressed during fermentation. […] Avi-tagged zymogen C163A-caspase-6 was processed to mature C163A-caspase-6 by the addition of active caspase-3 and caspase-6. Chip preparation for neutravidin-based capture was performed as previously described using either a Biacore T100 or Biacore 3000 instrument (GE Healthcare). Running buffer was 50 mM HEPES pH 7.2, 100 mM MgSO4, 30 mM NaCl, 1 mM TCEP, 0.01% Triton X-100, 1% PEG-3350, 2.5% DMSO, and the instrument was set for 20 degrees C. After capture one flow cell of apo-caspase-6 was exposed to a continuous flow of 20 µM VEID-FMK. A rise in signal could be detected for the binding/reacting of the VEID-FMK and exposure was continued until no additional rise in response was observed (∼45 minutes) indicating full saturation of all binding sites. There was no observed decrease in signal upon washing, indicating the reaction was irreversible. […] Fluorescent substrates were too limiting in solubility and quantity to be added to the running buffer, so substrates were mixed at a concentration equal to their Kmapp with 3 and injected together over the indicated surfaces. […]

Structure (SMILES): COc1ccc(-c2cc(C(=O)N[C@@H](CO)Cc3cccc(C#N)c3)co2)cc1OC [Compound 3]
- Vmax (% of DMSO control) for (VEID)2R110 (caspase-6; 3 nM of 3): 77.51 % of DMSO control
- Vmax (% of DMSO control) for (VEID)2R110 (caspase-6; 10 nM of 3): 55.35 % of DMSO control
- Vmax (% of DMSO control) for (VEID)2R110 (caspase-6; 30 nM of 3): 31.09 % of DMSO control
- Vmax (% of DMSO control) for (VEID)2R110 (caspase-6; 100 nM of 3): 14.10 % of DMSO control
- mechanism of inhibition (caspase-6; (DEVD)2R110 substrate): uncompetitive
- mechanism of inhibition (caspase-6; (VEID)2R110 substrate): uncompetitive
- pKd [1]: 5.89
